Test results: article PMC4303209, “A novel phosphatidylinositol 3-kinase (PI3K) inhibitor directs a potent FOXO-dependent, p53-independent cell cycle arrest phenotype characterized by the differential induction of a subset of FOXO-regulated genes” (Breast Cancer Research : BCR, 2014)

Tested on: MCF-7 breast cancer cells
Assay: Microarray gene expression analysis (Agilent whole human genome 4 x 44K; compound vs DMSO, LIMMA log2 fold change)
Type: cell-based
Conditions: Apoptosis genes

Cn1ncc2c(N3CCOCC3)nc(-c3cccc(O)c3)nc21 [ETP-45658]
PML log2FC (Gene 5371): -0.804 | POLR2G log2FC (Gene 5436): 0.335 | POU3F3 log2FC (Gene 5455): -0.318 | POU4F1 log2FC (Gene 5457): -0.504 | POU4F3 log2FC (Gene 5459): -0.263 | PPARD log2FC (Gene 5467): -0.520 | PPARG log2FC (Gene 5468): -0.185 | PPID log2FC (Gene 5481): 0.248 | PPP1CA log2FC (Gene 5499): -0.227 | PPP2CA log2FC (Gene 5515): -0.322 | PPP2CB log2FC (Gene 5516): -0.242 | PPP2R1B log2FC (Gene 5519): -0.532 | PPP2R2B log2FC (Gene 5521): 0.082 | PPP2R4 log2FC (Gene 5524): -0.446 | PPP2R5C log2FC (Gene 5527): 0.888 | PPP3CC log2FC (Gene 5533): 0.163 | PPP3R1 log2FC (Gene 5534): -0.308 | PPT1 log2FC (Gene 5538): 0.432 | PRF1 log2FC (Gene 5551): -0.050 | PRKAA1 log2FC (Gene 5562): 0.429 | PRKAA2 log2FC (Gene 5563): 0.082 | PRKCA log2FC (Gene 5578): -0.217 | PRKCD log2FC (Gene 5580): -0.079 | PRKCE log2FC (Gene 5581): -0.042 | PRKCG log2FC (Gene 5582): -0.093 | PRKCH log2FC (Gene 5583): -0.256 | PRKCI log2FC (Gene 5584): 0.583 | PKN2 log2FC (Gene 5586): 0.510 | PRKD1 log2FC (Gene 5587): 0.494 | PRKCQ log2FC (Gene 5588): 0.132 | PRKCZ log2FC (Gene 5590): 0.430 | PRKDC log2FC (Gene 5591): 0.131 | MAPK3 log2FC (Gene 5595): -0.190 | MAPK7 log2FC (Gene 5598): -0.336 | MAP2K6 log2FC (Gene 5608): 0.116 | PRODH log2FC (Gene 5625): -0.290 | LGMN log2FC (Gene 5641): -0.066 | PSEN1 log2FC (Gene 5663): 0.418 | PSEN2 log2FC (Gene 5664): -0.458 | PSMA2 log2FC (Gene 5683): 0.460 | PSMA3 log2FC (Gene 5684): 0.270 | PSMA4 log2FC (Gene 5685): 0.609 | PSMA6 log2FC (Gene 5687): 0.200 | PSMB1 log2FC (Gene 5689): 0.085 | PSMB2 log2FC (Gene 5690): -0.547 | PSMB4 log2FC (Gene 5692): 0.132 | PSMB5 log2FC (Gene 5693): -0.298 | PSMB6 log2FC (Gene 5694): -0.120 | PSMB9 log2FC (Gene 5698): -0.203 | PSMB10 log2FC (Gene 5699): -0.184 | PSMC1 log2FC (Gene 5700): 0.172 | PSMC2 log2FC (Gene 5701): 0.576 | PSMC3 log2FC (Gene 5702): -0.176 | PSMC5 log2FC (Gene 5705): -0.327 | PSMC6 log2FC (Gene 5706): 0.776 | PSMD1 log2FC (Gene 5707): 0.397 | PSMD3 log2FC (Gene 5709): -0.109 | PSMD4 log2FC (Gene 5710): -0.086 | PSMD5 log2FC (Gene 5711): 0.388 | PSMD7 log2FC (Gene 5713): 0.182 | PSMD8 log2FC (Gene 5714): -0.132 | PSMD9 log2FC (Gene 5715): -0.171 | PSMD10 log2FC (Gene 5716): -0.293 | PSMD11 log2FC (Gene 5717): -0.214 | PSMD12 log2FC (Gene 5718): -0.582 | PSME1 log2FC (Gene 5720): 0.322 | PTEN log2FC (Gene 5728): 1.014 | PTGFR log2FC (Gene 5737): -0.039 | PTGIS log2FC (Gene 5740): 0.033 | PTH log2FC (Gene 5741): -0.079 | PTGS2 log2FC (Gene 5743): -0.151 | PTK2 log2FC (Gene 5747): 0.157 | PTPN6 log2FC (Gene 5777): 0.120 | PTPRC log2FC (Gene 5788): -0.053 | PTPRH log2FC (Gene 5794): 0.279 | RAC1 log2FC (Gene 5879): -0.258 | RAD9A log2FC (Gene 5883): 0.686 | RAD21 log2FC (Gene 5885): 1.043 | RAG1 log2FC (Gene 5896): 0.657 | RALB log2FC (Gene 5899): 0.324 | RARA log2FC (Gene 5914): -0.580 | RARG log2FC (Gene 5916): -0.272 | RASA1 log2FC (Gene 5921): 0.488 | RASGRF2 log2FC (Gene 5924): -0.240 | RB1 log2FC (Gene 5925): 0.746 | RELA log2FC (Gene 5970): -0.454 | DPF2 log2FC (Gene 5977): 0.303 | REST log2FC (Gene 5978): 0.367 | ROBO1 log2FC (Gene 6091): 0.128 | ROBO2 log2FC (Gene 6092): -0.056 | ROCK1 log2FC (Gene 6093): 0.615 | RPS3A log2FC (Gene 6189): 0.669 | RPS6 log2FC (Gene 6194): 0.357 | RPS6KA1 log2FC (Gene 6195): -0.234 | RPS6KA3 log2FC (Gene 6197): 0.412 | RPS6KB1 log2FC (Gene 6198): 0.426 | RPS27A log2FC (Gene 6233): 0.401 | RTKN log2FC (Gene 6242): -0.208 | SORT1 log2FC (Gene 6272): 0.261 | S100A8 log2FC (Gene 6279): 0.469 | S100B log2FC (Gene 6285): -0.122 | SATB1 log2FC (Gene 6304): 0.589 | SCT log2FC (Gene 6343): -0.095 | CCL2 log2FC (Gene 6347): -0.179 | CCL3 log2FC (Gene 6348): -0.223 | CCL5 log2FC (Gene 6352): 0.088 | CCL21 log2FC (Gene 6366): -0.170 | CX3CL1 log2FC (Gene 6376): -0.563 | CXCL12 log2FC (Gene 6387): -0.211 | MAP2K4 log2FC (Gene 6416): 0.120 | SET log2FC (Gene 6418): 0.225 | SFRP1 log2FC (Gene 6422): 0.214 | SFRP2 log2FC (Gene 6423): -0.093 | SFRP4 log2FC (Gene 6424): 0.051 | SFRP5 log2FC (Gene 6425): -0.042 | ITSN1 log2FC (Gene 6453): 0.278 | SHB log2FC (Gene 6461): -0.876 | SHH log2FC (Gene 6469): -0.209 | SIAH1 log2FC (Gene 6477): 0.248 | SIAH2 log2FC (Gene 6478): -0.579 | STIL log2FC (Gene 6491): 0.485 | SIX1 log2FC (Gene 6495): -0.507 | SKI log2FC (Gene 6497): -0.663 | SLC9A1 log2FC (Gene 6548): -0.600 | SLIT3 log2FC (Gene 6586): -0.286 | SNAI2 log2FC (Gene 6591): 0.199 | SMO log2FC (Gene 6608): -0.194 | SMPD1 log2FC (Gene 6609): 0.257 | SMPD2 log2FC (Gene 6610): -0.399 | SIGLEC1 log2FC (Gene 6614): -0.350 | SNAI1 log2FC (Gene 6615): -0.710 | SNCB log2FC (Gene 6620): -0.626 | SNCA log2FC (Gene 6622): -0.041 | SOD2 log2FC (Gene 6648): 0.179 | SON log2FC (Gene 6651): -0.111 | SOX2 log2FC (Gene 6657): 0.298 | SOX4 log2FC (Gene 6659): 0.216 | SOX9 log2FC (Gene 6662): -2.381 | SOX10 log2FC (Gene 6663): -0.095 | SP100 log2FC (Gene 6672): 0.968 | SPI1 log2FC (Gene 6688): -0.242 | SPN log2FC (Gene 6693): -0.216 | SRC log2FC (Gene 6714): -0.316 | SRPK2 log2FC (Gene 6733): 0.850 | SST log2FC (Gene 6750): 0.289 | SSTR3 log2FC (Gene 6753): -0.375 | STAR log2FC (Gene 6770): -0.189 | STAT1 log2FC (Gene 6772): 0.445 | STAT5A log2FC (Gene 6776): 0.569 | STAT5B log2FC (Gene 6777): 0.093 | STK4 log2FC (Gene 6789): 0.158 | STK11 log2FC (Gene 6794): -0.165 | STXBP1 log2FC (Gene 6812): -0.504 | SUPV3L1 log2FC (Gene 6832): 0.440 | ADAM17 log2FC (Gene 6868): 0.578 | TAF9 log2FC (Gene 6880): 0.363 | MAP3K7 log2FC (Gene 6885): 0.181
